Measurements: the supplement of paper PMC10307832

Assays:
R406 + Trametinib = compound: COc1cc(Nc2ncc(F)c(Nc3ccc4c(n3)NC(=O)C(C)(C)O4)n2)cc(OC)c1OC [R406] + CC(=O)Nc1cccc(-n2c(=O)n(C3CC3)c(=O)c3c(Nc4ccc(I)cc4F)n(C)c(=O)c(C)c32)c1 [Trametinib] (partner 0.02 µM); assay: relative viability (nuclei count vs DMSO), 5 days (fraction); higher = more cells survive
Summary of the method: (§1)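 Medians of duplicate plates are given as relative viability. That measure is the nuclei count in treated wells divided by the count in vehicle wells. Counts were taken on 4× images of lung cancer cell lines in 1536-well plates, 5 days after pin-tool dosing the day after seeding with one drug alone or a fixed anchor-drug dose plus five library-drug doses (not always all listed) in √10 steps.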

R406 + AZD7762 = compound: COc1cc(Nc2ncc(F)c(Nc3ccc4c(n3)NC(=O)C(C)(C)O4)n2)cc(OC)c1OC [R406] + NC(=O)Nc1cc(-c2cccc(F)c2)sc1C(=O)N[C@H]1CCCNC1 [AZD7762] (partner 0.2 µM); assay: as above
Summary of the method: as §1

| Cell Line | relative viability (R406 + Trametinib; first compound 0.08 µM) | relative viability (R406 + Trametinib; first compound 0.253 µM) | relative viability (R406 + Trametinib; first compound 0.8 µM) | relative viability (R406 + Trametinib; first compound 2.53 µM) | relative viability (R406 + Trametinib; first compound 8 µM) | relative viability (R406 + AZD7762; first compound 0.08 µM) | relative viability (R406 + AZD7762; first compound 0.253 µM) | relative viability (R406 + AZD7762; first compound 0.8 µM) | relative viability (R406 + AZD7762; first compound 2.53 µM) | relative viability (R406 + AZD7762; first compound 8 µM) |
| --- | --- | --- | --- | --- | --- | --- | --- | --- | --- | --- |
| NCI-H1915 | 0.324 | 0.334 | 0.313 | 0.268 | 0.197 | 0.687 | 0.751 | 0.735 | 0.614 | 0.614 |
| NCI-H1944 | 0.401 | 0.453 | 0.364 | 0.385 | 0.319 | 0.484 | 0.449 | 0.523 | 0.388 | 0.349 |
| NCI-H1975 | 0.315 | 0.307 | 0.287 | 0.112 | 0.201 | – | 0.757 | 0.771 | 0.341 | 0.325 |
| NCI-H1993 | 0.442 | 0.542 | 0.518 | 0.679 | 0.573 | 0.741 | 1.1 | 0.727 | 0.719 | 0.537 |
| NCI-H2085 | 0.591 | 0.634 | 0.545 | 0.498 | 0.226 | 1.03 | 1 | 1.02 | 0.72 | 0.726 |
| NCI-H2087 | 0.227 | 0.218 | 0.197 | 0.194 | 0.156 | 1.36 | 1.47 | 1.33 | 1.06 | 1.25 |
| NCI-H2126 | 0.609 | 0.535 | 0.511 | 0.519 | 0.522 | 0.937 | 1.12 | 1.08 | 0.909 | 0.858 |
| NCI-H2170 | 0.923 | 0.99 | 1.02 | 0.647 | 0.842 | 0.81 | 0.766 | 0.948 | 0.596 | 0.708 |
| NCI-H2342 | 0.724 | 0.841 | 0.8 | 0.753 | 0.844 | 0.505 | 0.53 | 0.476 | 0.433 | 0.392 |
| NCI-H2347 | 0.304 | 0.285 | 0.282 | 0.244 | 0.255 | 0.785 | 0.81 | 0.776 | 0.422 | 0.529 |
| NCI-H2405 | 0.584 | 0.699 | 0.615 | 0.447 | 0.299 | 0.715 | 0.869 | 0.85 | 0.692 | 0.244 |
| NCI-H3122 | 0.234 | 0.218 | 0.206 | 0.241 | 0.234 | 1.06 | 1.04 | 0.969 | 0.804 | 0.924 |
| PC-3 [JPC-3] | 0.801 | 0.738 | 0.81 | 0.669 | 0.475 | 0.817 | 0.819 | 0.923 | 0.684 | 0.381 |
| PC-14 | 0.777 | 0.898 | 0.857 | 0.628 | 0.11 | 0.296 | 0.435 | 0.418 | 0.403 | 0.281 |
| RERF-LC-KJ | 0.833 | 0.918 | 1 | 0.753 | 0.715 | 1 | 1.23 | 1.29 | 0.692 | 0.988 |
| SW 900 | 0.958 | 0.805 | 0.906 | 0.764 | 0.118 | 0.536 | 0.814 | 0.787 | 0.232 | 0.146 |
